From ChEMBL document CHEMBL1146531, “Steroidal saponins from the bark of Dracaena draco and their cytotoxic activities” (J Nat Prod, 2003)
Activity calls are given as the source filed them. The rule behind the calls is not given here.

Experiments:
[1] = test system: HL-60; assay: Cytotoxicity against human HL60 cells after 72 hrs by MTT assay; format: functional, cell-based; conditions: HL-60, 72 h
[2] = test system: HL-60; assay: Induction of apoptosis in human HL60 cells assessed as apoptotic cells at 30 uM after 12 hrs measured by morphological change; format: functional
[3] = test system: HL-60; assay: Induction of apoptosis in human HL60 cells assessed as PARP cleavage at 30 uM after 12 hrs by Western blot analysis; format: functional, cell-based
[4] = test system: U-937; assay: Cytotoxicity against human U937 cells; format: functional, cell-based
[5] = test system: HL-60; assay: Cytotoxicity against human HL60 cells after 48 hrs by MTT assay; format: functional, cell-based

SMILES | IC50 [1] [µM] | Activity [2] [%] | further results
C=C1CO[C@@]2(O[C@H]3C[C@H]4[C@@H]5CC=C6C[C@@H](O)C[C@@H](O[C@@H]7OC[C@H](O)[C@H](O)[C@H]7O[C@@H]7O[C@@H](C)[C@H](O)[C@@H](O)[C@H]7OC(C)=O)[C@]6(C)[C@H]5CC[C@]4(C)[C@H]3[C@@H]2C)[C@@H](O)[C@H]1O [DRACONIN C] | > 100 | 5 | –
C[C@@H]1CC[C@@]2(OC1)O[C@H]1C[C@H]3[C@@H]4CC=C5C[C@@H](O[C@@H]6O[C@H](CO)[C@@H](O[C@@H]7O[C@@H](C)[C@H](O)[C@@H](O)[C@H]7O)[C@H](O)[C@H]6O)CC[C@]5(C)[C@H]4CC[C@]3(C)[C@H]1[C@@H]2C | > 100 | – | –
C=C1CO[C@@]2(O[C@H]3C[C@H]4[C@@H]5CC=C6C[C@@H](O)C[C@@H](O[C@@H]7OC[C@H](O)[C@H](O)[C@H]7O[C@@H]7O[C@@H](C)[C@H](OC(C)=O)[C@@H](O)[C@H]7O)[C@]6(C)[C@H]5CC[C@]4(C)[C@H]3[C@@H]2C)[C@@H](O)[C@H]1O | > 100 | – | –
CO[C@]1(CC[C@@H](C)CO[C@@H]2O[C@H](CO)[C@@H](O)[C@H](O)[C@H]2O)O[C@H]2C[C@H]3[C@@H]4CC=C5C[C@@H](O[C@@H]6O[C@H](CO)[C@@H](O)[C@H](O[C@@H]7O[C@H](CO)[C@@H](O)[C@H](O)[C@H]7O)[C@H]6O[C@@H]6O[C@@H](C)[C@H](O)[C@@H](O)[C@H]6O)CC[C@]5(C)[C@H]4CC[C@]3(C)[C@H]2[C@@H]1C | 7.2 | – | –
C=C1CO[C@@]2(O[C@H]3C[C@H]4[C@@H]5CC=C6C[C@@H](O)C[C@@H](O[C@@H]7OC[C@H](O)[C@H](O)[C@H]7O[C@@H]7O[C@@H](C)[C@H](O)[C@@H](OC(C)=O)[C@H]7OC(C)=O)[C@]6(C)[C@H]5CC[C@]4(C)[C@H]3[C@@H]2C)[C@@H](O)[C@H]1O [DRACONIN B] | 39 | 9.4 | –
C[C@@H]1CC[C@@]2(OC1)O[C@H]1C[C@H]3[C@@H]4CC=C5C[C@@H](O[C@@H]6O[C@H](CO)[C@@H](O)[C@H](O[C@@H]7O[C@H](CO)[C@@H](O)[C@H](O)[C@H]7O)[C@H]6O[C@@H]6O[C@@H](C)[C@H](O)[C@@H](O)[C@H]6O)CC[C@]5(C)[C@H]4CC[C@]3(C)[C@H]1[C@@H]2C [GRACILLIN] | 3.7 | – | –
C=C1CO[C@@]2(O[C@H]3C[C@H]4[C@@H]5CC=C6C[C@@H](O)C[C@@H](O[C@@H]7OC[C@H](O)[C@H](O)[C@H]7O[C@@H]7O[C@@H](C)[C@H](OC(C)=O)[C@@H](OC(C)=O)[C@H]7OC(C)=O)[C@]6(C)[C@H]5CC[C@]4(C)[C@H]3[C@@H]2C)[C@@H](O)[C@H]1O [DRACONIN A] | 9.7 | 35.1 | Activity [3]: Dose-dependent effect; IC50 [4]: 6.8 µM
CO[C@]1(CC[C@@H](C)CO[C@@H]2O[C@H](CO)[C@@H](O)[C@H](O)[C@H]2O)O[C@H]2C[C@H]3[C@@H]4CC=C5C[C@@H](O[C@@H]6O[C@H](CO)[C@@H](O[C@@H]7O[C@@H](C)[C@H](O)[C@@H](O)[C@H]7O)[C@H](O)[C@H]6O[C@@H]6O[C@@H](C)[C@H](O)[C@@H](O)[C@H]6O)CC[C@]5(C)[C@H]4CC[C@]3(C)[C@H]2[C@@H]1C [METHYLPROTODIOSCIN] | 7.3 | – | Activity [5]: Active
C[C@@H]1CC[C@@]2(OC1)O[C@H]1C[C@H]3[C@@H]4CC=C5C[C@@H](O[C@@H]6O[C@H](CO)[C@@H](O[C@@H]7O[C@@H](C)[C@H](O)[C@@H](O)[C@H]7O)[C@H](O)[C@H]6O[C@@H]6O[C@@H](C)[C@H](O)[C@@H](O)[C@H]6O)CC[C@]5(C)[C@H]4CC[C@]3(C)[C@H]1[C@@H]2C [DIOSCIN] | 2 | – | –
